# Data: patent publication US20090061022A1, “Pharmaceutical composition comprising arsenite for the treatment of malignancy” (priority 2004, published 2009)
# “And” between values parts separate entries of the source, which are not always exact repeats. Equal values may be shown once.
# Tests used:
# [1] = system: RXF 944LX; assay: Dose finding study in human renal cancer model RXF 944LX in nude mice (i.p. days 0, 7, 14); conditions: for BW loss % (day) / Drug-related deaths / Rating / SGD (specific growth delay) / T/C %: days 0, 7, 14
# Excerpt: In a dose finding study, the potential anticancer activity of sodium meta-arsenite and arsenic acid sodium salt versus arsenic trioxide was examined in the human renal cancer model, RXF 944LX.
# Cancer fragments (1-2 mm in diameter), obtained from xenografts in serial passage in nude mice, were implanted subcutaneously (S.C.) in a flank of male NRMI nude mice (one fragment per mouse). Mice with appropriate cancer volumes (5-7 mm in diameter) were randomly distributed to treatment and control groups (4 mice/group). The start of treatment was day 0. Cancer volume and body weights were measured at least twice per week.
# 1) Sodium meta-arsenite (3, 10, 30 mg/kg/day), 2) Arsenic acid sodium salt (3, 10, 30 mg/kg/day) and 3) Arsenic trioxide (3, 10, 30 mg/kg/day) were administered intraperitoneally (i.p.) once daily on days 0, 7 and 14.
# Stock solution of sodium meta-arsenite and arsenic acid sodium salt (3 mg/ml) were prepared in 5% (w/v) dextrose solution, respectively, to minimize acute arsenic toxicity. For arsenic trioxide, 9 mg of arsenic trioxide was dissolved in 1M NaOH (75 μl) followed by mixing with sterile aqua injectabilia (2175 μl) and sterile 20% (w/v) dextrose in water (500 μl). Further dilution to the desired concentration was done with a 5% dextrose solution to give a final concentration of 3 mg/ml.
# The cancer volume of each animal was determined by two-dimensional measurement using calipers. The volume was calculated according to the formula: (a×b^2)×0.5; wherein a and b represent two perpendicular diameters in which a (length) is the larger diameter and b (width) the smaller diameter.
# Relative cancer volumes (RCV) were calculated for each individual cancer by dividing the cancer volume on day X by the cancer volume on day 0 multiplied by 100%. The cancer volume of a treatment group was expressed as the median RCV of all mice of the group. Median RCV values were used for drawing growth curves and treatment evaluation. Optimal cancer growth inhibition at a particular day within the treatment period was calculated from the median RCV values of the treated (T) versus the controlled (C) group multiplied by 100%. A T/C value<50% was considered as anti-cancer activity.
# [2] = Maximum tolerated dose assessment after daily oral gavages for 14 days in the mouse; type: in vivo, CD-1 mice
# Method: The objective of this oral toxicity study was to establish a MTD after repeated administration of sodium meta-arsenite to mice.
# Ampoules of sodium meta-arsenite (dissolved in 10% (w/v) glucose in water) in concentrations of 1, 1.6, 2.6, 4.1 and 6.5 mg/ml were stored in a refrigerator in the dark. Based on the previous study, the following doses were selected: 10, 16, 26, and 41 and 65 mg/kg/day. Each dose was administered daily by oral gavages to groups of 4 male and 4 CD-1 mice for 14 days, followed by a 14-day recovery period.
# Clinical signs were evaluated daily and body weights were recorded twice weekly. Scheduled termination was performed on day 29 (after 14 days of recovery). Macroscopic examination was performed on all animals.
# [3] = Maximum tolerated dose assessment after daily oral administration for 14 days in the pig; type: in vivo, pigs (large white×landrace×pietrain)
# Excerpt: The aims of this study were to establish a MTD and the kinetics of sodium meta-arsenite after repeated administration to pigs.
# Sodium meta-arsenite was formulated using enteric-coated capsules (size no. 2) for a toxicology study in pigs. Cellulose-based clear capsules contained 1) sodium meta-arsenite as an active ingredient, 2) microcrystalline cellulose and colloidal silicon dioxide as excipients. The coating material of the capsules comprised of Eudragit L 12.5 (acrylic polymer) and Macrogol 6000 (polyethylene glycol as softener). It is resistant to gastric fluid at least for 1 hour.
# The oral route was selected, as it is the intended route of administration in human. Based on previous studies, the following doses were selected: 7.5 and 10 mg/pig (equivalent to 24.5 and 32.5 mg/man). Capsules (enteric coated, size no. 2) of sodium meta-arsenite in concentrations of 7.5 and 10 mg/capsule, formulations, were stored in a refrigerator in the dark. Each dose was administered orally by gavages to groups of 12 male growing pigs (large white×landrace×pietrain) for 14 days, followed by a 14-day recovery period. The mean weight of the pigs was 16.8±2.3 kg at the beginning of the study.
# Mortality and viability were checked twice daily, clinical examinations were performed daily and body weight was recorded twice a week. Scheduled termination was performed on day 29 (after 14 days of recovery). Macroscopic examination was performed on all animals and samples from brain (cerebellum, mid brain, cortex), heart, kidney, liver, lung, spleen, stomach wall, small intestine and large intestine taken for histopathology.
# Blood samples (10 ml) of both dose groups were collected for hematology and biochemistry analysis on days −2, −1, 0, 7, 14, 21, 28. The samples collected during the treatment period were taken prior to the administration of the next drug. […]
# [4] = system: panel of forty-one (41) human cancer cell lines; assay: Cytotoxic activity, panel of forty-one (41) human cancer cell lines
# Excerpt: In a next study, the cytotoxic activity of sodium meta-arsenite was head-to-head compared with arsenic trioxide in panels loaded with 41 cancer cell lines from ten human cancers.
# [5] = 10 mg/kg i.p., listed as sodium meta-arsenite
# [6] = panel of 41 human cancer cell lines
structure (smiles),measurement,setting,value
"O=[As][O-].[Na+] [Sodium meta-arsenite, sodium meta-arsenite]",BW loss % (day),[1]; 3 mg/kg i.p.,+6.8 (21) %
same,Drug-related deaths,[1]; 3 mg/kg i.p.,0/4
same,Rating,[1]; 3 mg/kg i.p.,+ (+T/C < 50)
same,SGD (specific growth delay),[1]; 3 mg/kg i.p.,0.4
same,T/C %,[1]; 3 mg/kg i.p.,19%
same,BW loss % (day),[1]; 10 mg/kg i.p.,+8.7 (21) %
same,Drug-related deaths,[1]; 10 mg/kg i.p.,0/4
same,Rating,[1]; 10 mg/kg i.p.,− (−T/C ≧ 50%)
same,SGD (specific growth delay),[1]; 10 mg/kg i.p.,−0.1
same,T/C %,[1]; 10 mg/kg i.p.,51%
same,BW loss % (day),[1]; [5],no lethality or body weight loss was observed
same,Drug-related deaths,[1]; [5],no lethality or body weight loss was observed
same,Drug-related deaths,[1]; 30 mg/kg i.p.,4/4
same,Drug-related deaths,"[1]; 30 mg/kg i.p., listed as sodium meta-arsenite",died within a few days after the first injection
same,Maximum Tolerated Dose (MTD),"[1]; i.p. once daily on days 0, 7 and 14, RXF 944LX bearing nude mice",10 mg/kg/day
same,Findings,"[2]; 10 mg/kg/day oral gavage 14 days, mouse",No findings were noted
same,Findings,"[2]; 16 mg/kg/day oral gavage 14 days, mouse",Piloerection on the head was noted for one male on days 4 and 5
same,Findings (mortality),"[2]; 26 mg/kg/day oral gavage 14 days, mouse",No unscheduled mortality occurred
same,Findings (mortality),"[2]; 41 mg/kg/day oral gavage 14 days, mouse",All males died on days 2-4 and all females on days 2-7
same,Findings (mortality),"[2]; 65 mg/kg/day oral gavage 14 days, mouse","All animals died on days 2 or 3, all females died on day 1 or 2"
same,MTD (or LD10 value),"[2]; mice, males and females, oral once daily 14 days, calculated",32 mg/kg/day
same,MTD,"[2]; mouse, oral once daily 14 days",96 mg/m^2/day
same,Hematological and biochemical parameters,"[3]; 7.5 and 10 mg/pig, 14 days",No (statistical) significant differences
same,Mortality,"[3]; 7.5 and 10 mg/pig, enteric-coated capsules, 14 days + 14-day recovery",No pigs died or were killed in extremis
same,Drug related side effects,[3]; pigs at the doses of 7.5 and 10 mg/day,did not induce any drug related side effects
same,activity in panel of 41,[4]; 0.01 μg/ml and 0.001 μg/ml,showed no activity
same,"cancer cell lines that responded, out of forty one (41)",[4]; 0.1 μg/ml,16
same,"cancer cell lines that responded, percent of 41","[4]; 1 μg/ml, more than 70% growth inhibition",80%
same,"cancer cell lines in which active, percent of 41",[4]; 10 μg/ml,100%
same,"selectivity (individual IC70<½ mean IC70), fraction of cell lines",[4]; breast (mammary) cancer cell lines,¾
same,fold more potent than arsenic trioxide,[4]; conclusion of in vitro data,at least 10 fold
same,"selectivity (individual IC70<½ mean IC70), fraction of cell lines",[4]; leukemia cell lines,¾
same,"selectivity (individual IC70<½ mean IC70), fraction of cell lines",[4]; melanoma cell lines,4/7
same,Mean IC50,[4]; [6],0.129 µg/mL
same,Mean IC70,[4]; [6],0.329 μg/ml and 2.53 μM
same,Mean IC90,[4]; [6],1.691 µg/mL
same,Mean IC70,"[4]; panel of 41 human cancer cell lines, listed as sodium meta-arsenite",0.329 μg/ml and 2.53 μM
same,IC50,"[4]; read-out: Mean IC50, panel of 41 human cancer cell lines",0.99 µM
same,IC90,"[4]; read-out: Mean IC90, panel of 41 human cancer cell lines",13 µM
